Assay results as given in publication PMC6272903, “Synthesis and Structure-Activity Relationship Analysis of 5-HT7 Receptor Antagonists: Piperazin-1-yl Substituted Unfused Heterobiaryls” (Molecules, 2016).
Several values for one entry are separate records, joined by “and”; a condition that tells them apart may be missing. Equal entries are not always repeated. Structures can show the parent of a compound that is named as a salt.

target: T1, human 5-HT7b receptors (Homo sapiens, UniProt P34969); test: 5-HT7 competition radioligand binding assay ([3H]5-CT); conditions: HEK293 cells overexpressing human 5-HT7b receptors, at least two independent experiments in triplicate, read-out: Ki ± S.D. 5-HT7 binding affinity
T1 construct: expressed in transfected cells; host or cells: HEK293
T1 sequence (P34969 1-432): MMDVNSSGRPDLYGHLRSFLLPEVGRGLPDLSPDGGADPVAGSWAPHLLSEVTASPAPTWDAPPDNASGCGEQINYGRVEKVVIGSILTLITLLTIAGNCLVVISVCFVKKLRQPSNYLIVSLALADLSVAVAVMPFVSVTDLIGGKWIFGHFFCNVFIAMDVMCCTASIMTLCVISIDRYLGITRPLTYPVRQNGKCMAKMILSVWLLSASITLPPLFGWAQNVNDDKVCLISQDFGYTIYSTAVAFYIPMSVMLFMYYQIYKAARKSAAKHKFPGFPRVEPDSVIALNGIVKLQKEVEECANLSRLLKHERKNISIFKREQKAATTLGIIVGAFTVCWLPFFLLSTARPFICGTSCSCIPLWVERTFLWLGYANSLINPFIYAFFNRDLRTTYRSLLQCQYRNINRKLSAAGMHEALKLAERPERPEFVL
Procedure: Novel scaffold endowed with 5-HT7R activity was identified by screening of the in-house compound library in a single compound concentration of 1 µM in a competition radioligand binding assay using [^3H]5-CT and HEK293 cells overexpressing the human 5-HT7b receptors.

Ki | Compound
8 ± 1 nM | Cc1cc(-c2ccoc2)cc(N2CCN(C)CC2)n1 [Compound 54, 4-(3-Furyl)-2-methyl-6-(4-methylpiperazin-1-yl)pyridine]
380 ± 44 nM | CCc1cc(-c2ccco2)nc(N2CCN(C)CC2)n1 [Compound 27, 4-Ethyl-6-(2-furyl)-2-(4-methylpiperazin-1-yl)pyrimidine]
1020 ± 96 nM | CN1CCN(c2nccc(-c3ccco3)n2)CC1 [Compound 26, 4-(2-Furyl)-2-(4-methylpiperazin-1-yl)pyrimidine]
> 10000 nM | CN1CCN(c2nccc(-c3nccs3)n2)CC1 [Compound 40, 2-(4-Methylpiperazin-1-yl)-4-(thiazol-2-yl)pyrimidine]
> 10000 nM | 4-(3-Furyl)-2,4-bis(4-methylpiperazin-1-yl)pyrimidine [Compound 20]
299 ± 42 nM | c1cc(-c2ccoc2)nc(N2CC[N+]3(CCOCC3)CC2)n1 [Compound 47, 4-[4-(3-Furyl)pyrimidin-2-yl]piperazine-1-spiro-1-morpholinium iodide]

Further lines, the compound ahead of its results:

Compound | Ki
Cc1cc(-c2ccoc2)cc(N2CCN(C)CC2)c1 [Compound 61, 1-[3-(3-Furyl)-5-methylphenyl]-4-methylpiperazine] | 37 ± 3 nM
CCCCc1cc(-c2ccsc2)nc(N2CCN(C)CC2)n1 [Compound 31, 4-n-Butyl-2-(methylpiperazin-1-yl)-6-(3-thienyl)pyrimidine] | 15 ± 3 nM
CN1CCN(c2nccc(-c3cccc(O)c3)n2)CC1 [Compound 34, 4-(3-Hydroxyphenyl)-2-(4-methylpiperazin-1-yl)pyrimidine] | > 10000 nM
CCCCCCc1cc(-c2ccoc2)nc(N2CCN(C)CC2)n1 [Compound 14, 4-(3-Furyl)-6-n-hexyl-2-(4-methylpiperazin-1-yl)pyrimidine] | 3.3 ± 0.5 nM
CN1CCN(c2nccc(-c3cc4ccccc4n3C)n2)CC1 [Compound 38, 4-(1-Methylindol-2-yl)-2-(4-methylpiperazin-1-yl)pyrimidine] | 1530 ± 125 nM
CN1CCN(c2cccc(-c3ccoc3)n2)CC1 [Compound 57, 6-(3-Furyl)-2-(4-methylpiperazin-1-yl)pyridine] | 8 nM and 11 nM

system: not given; test: not given; conditions: not given

melting point | Compound
299 to 300 °C | CN1CCN(c2nccc(-c3cc4ccccc4s3)n2)CC1 (as salt: hydrobromid) [Compound 37, 4-(Benzothiophen-2-yl)-2-(4-methylpiperazin-1-yl)pyrimidine]
206 to 208 °C | CCCc1cnc(N2CCN(C)CC2)nc1-c1ccoc1 (as salt: hydrobromid) [Compound 21, 4-(3-Furyl)-2-(4-methylpiperazino)-5-propylpyrimidine]

More lines, now with the values behind:

Compound | melting point
c1cc(-c2ccoc2)nc(N2CCCCC2)n1 (as salt: hydrobromid) [Compound 43, 4-(3-Furyl)-2-(piperidin-1-yl)pyrimidine] | 190 to 191 °C
c1cc(-c2ccoc2)nc(NCCCc2ncc[nH]2)n1 (as salt: hydrobromid) [Compound 46, 4-(3-Furyl)-N-[3-(1H-imidazol-2-yl)propyl]pyrimidin-2-amine] | 234 to 236 °C
CN1CCN(c2nccc(-c3cc4ccccc4o3)n2)CC1 (as salt: hydrobromid) [Compound 36, 4-(Benzofuran-2-yl)-2-(4-methylpiperazin-1-yl)pyrimidine] | > 300 °C
CCCN1CCN(c2nccc(-c3ccoc3)n2)CC1 (as salt: hydrobromid) [Compound 4, 4-(3-Furyl)-2-(4-propylpiperazin-1-yl)pyrimidine] | 274 to 277 °C
CCCCCCc1cc(-c2coc(C)c2)nc(N2CCN(C)CC2)n1 (as salt: hydrobromid) [Compound 25, 4-n-Hexyl-6-(5-methyl-3-furyl)-2-(4-methylpiperazin-1-yl)pyrimidine] | 242 °C (dec.)
Cc1occc1-c1ccnc(N2CCN(C)CC2)n1 (as salt: hydrobromid) [Compound 23, 4-(2-Methyl-3-furyl)-2-(4-methylpiperazin-1-yl)pyrimidine] | 263 to 265 °C
